The values below come from patent US11072588B2, “Barbituric acid derivatives comprising cationic and lipophilic groups” (UNIVERSITETET I TROMSØ—NORGES ARKTISKE UNIVERSITET, priority 2017, dated 2021).

Converted amounts (≈) assume the structure as drawn. Read-outs that look alike come from different tables or passages of the source.

Series [1] concerns antibiotic susceptible Gram-positive and Gram-negative reference strains. Kind of series: MIC assay, ranges over the reference strains. The format is cell-based. As to the method:
Working solutions of the test derivatives were prepared with up to 100% DMSO and stored at −20° C. If necessary, the solutions were heated to 40-80° C. before testing to facilitate complete dissolution. Double-distilled water was used in all dilutions prepared. […] A microdilution susceptibility test was used for MIC determination according to Clinical and Laboratory Standards Institute, “Methods for Dilution Antimicrobial Sisceptibility Tests for Bacteria That Graw Aerobically”, Approved Standard M07-A9, edition 2012, with modifications as described by Igumnova et al (Bioorg Med Chem, 2016, 24 (22), 5884-5894).
Briefly, the bacterial inoculum was adjusted to approximately 2.5-3×10^4 cells/mL in Mueller-Hinton broth (MHB, Difco Laboratories, USA), and incubated in a ratio of 1:1 with test derivatives in polystyrene 96-well flat-bottom microplates (NUNC, Roskilde, Denmark). Positive growth control (without test derivatives) and negative control (without bacteria) were included. The reference antibiotic was oxytetracycline hydrochloride (Sigma Aldrich, Saint Louis, Mo., USA). The microplates were incubated in an EnVision microplate reader (Perkin-Elmer, Turku, Finland) placed in an incubator set to 35° C. for 48 h. The MIC value was defined as the lowest concentration of derivative resulting in no bacterial growth as determined by OD600 measurement. All derivatives were tested in three parallels.

In series [2] the test system is human RBCs. Put plainly: Determination of haemolytic activity. It counts as cell-based. The gist of the method:
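Heparinized fresh blood was washed in PBS, and RBCs were used at 1% v/v final with test compounds at 500–4 μM (DMSO ≤1%) for 1 h at 37 °C. Haemoglobin release was read at 545 nm and expressed relative to 1% Triton X-100 after PBS background correction. EC50 values are means of three independent experiments.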

Setting [3] is: range over S. aureus, C. glutamicum, E. coli, P. aeruginosa reference strains, read-out: MIC values against all the reference strains.
[4] abbreviates: reference strains, range, read-out: MIC values against the Gram-negative bacteria E. coli and P. aeruginosa.

On to `NCCCCN1C(=O)N(CCCCN)C(=O)C(Cc2cc(Br)cc(Br)c2)(Cc2cc(Br)cc(Br)c2)C1=O` [7(ii)], for which the minimum inhibitory concentration (MIC) in series [1] (setting [3]) was 1 to 8 µg/mL (≈ 1.31 to 10.4 µM). Take `CC(C)(C)c1cc(CC2(Cc3cc(C(C)(C)C)cc(C(C)(C)C)c3)C(=O)N(CCCCN)C(=O)N(CCCCN)C2=O)cc(C(C)(C)C)c1` [7(iii), 1,3-bis(4-aminobutyl)-5,5-bis(3,5-di-tert-butylbenzyl)-pyrimidin-2,4,6(1H,3H,5H)-trione]: in series [1] (setting [3]), the MIC lay in the range of 0.25 to 4 µg/mL (≈ 0.37 to 5.93 µM). As to `N=C(N)NCCCCN1C(=O)N(CCCCNC(=N)N)C(=O)C(Cc2cc(Br)cc(Br)c2)(Cc2cc(Br)cc(Br)c2)C1=O` [8(ii), 1,1′-(4,4′-(5,5-bis(3,5-dibromobenzyl)-2,4,6-trioxodihydropyrimidine-1,3(2H,4H)-diyl)bis(butane-4,1-diyl))diguanidine], the MIC in series [1] (setting [4]) is 1 to 4 µg/mL (≈ 1.18 to 4.7 µM). On the same count and under the same terms, under `CC(C)(C)c1cc(CC2(Cc3cc(C(C)(C)C)cc(C(C)(C)C)c3)C(=O)N(CCCCNC(=N)N)C(=O)N(CCCCNC(=N)N)C2=O)cc(C(C)(C)C)c1` [8(iii), 1,1′-(4,4′-(5,5-bis(3,5-di-tert-butylbenzyl)-2,4,6-trioxodihydropyrimidine-1,3(2H,4H)-diyl)bis(butane-4,1-diyl))-diguanidine] stands 4 µg/mL (≈ 5.27 µM); under `N=C(N)NCCCCN1C(=O)N(CCCCNC(=N)N)C(=O)C(Cc2ccc(F)c3ccccc23)(Cc2ccc(F)c3ccccc23)C1=O` [8(v), 1,1′-(4,4′-(5,5-bis((4-fluoronaphthalen-1-yl)methyl)-2,4,6-trioxodihydropyrimidine-1,3(2H,4H)-diyl)bis(butane-4,1-diyl))diguanidine], 1 to 4 µg/mL (≈ 1.49 to 5.96 µM). Turning to `CC(C)(C)c1ccc(CC2(Cc3ccc(C(C)(C)C)cc3)C(=O)N(CCCCN)C(=O)N(CCCCN)C2=O)cc1` [Compound 7(i), 1,3-bis(4-aminobutyl)-5,5-bis(4-tertbutylbenzyl) pyrimidin-2,4,6(1H,3H,5H)-trione], the MIC in series [1] (setting [3]) lay within 1 to 8 µg/mL (≈ 1.78 to 14.2 µM). On to `CC(C)(C)c1ccc(CC2(Cc3ccc(C(C)(C)C)cc3)C(=O)N(CCCCNC(=N)N)C(=O)N(CCCCNC(=N)N)C2=O)cc1` [Compound 8(i), 1,1′-(4,4′-(5,5-bis(4-tert-butylbenzyl)-2,4,6-trioxodihydropyrimidine-1,3(2H,4H)-diyl)bis(butane-4,1-diyl))diguanidine], for which the minimal inhibitory concentration (MIC) in series [1] (setting [4]) lay within 1 to 4 µg/mL (≈ 1.55 to 6.18 µM). The “RBC toxicity compared to the amine 7(i)” value in series [2] is “twofold increased RBC toxicity”.

As usually defined, the MIC is the lowest concentration that inhibits growth of the organism.
